Molecules are shown by their SMILES.

The results in this text go back to patent US8802678B2, “Carbonylated (aza) cyclohexanes as dopamine D3 receptor ligands” (Bioprojet, priority 2006, dated 2014).

What is called melting point is the temperature of the solid-liquid transition. In the case of `CC(=O)CN1CCC(CCN2CCN(c3ccc(F)c(Cl)c3F)CC2)CC1` [Example 623, 1-(4-{2-[4-(3-Chloro-2,4-difluorophenyl)piperazin-1-yl]ethyl}piperidin-1-yl)propan-2-one], the melting point was found to be 82 °C.
For `NC(=O)CCC(=O)N[C@H]1CC[C@H](CCN2CCN(c3cc(C(F)(F)F)ccc3F)CC2)CC1` [Example 631, N-(4-{2-[4-(2-Fluoro-5-trifluoromethylphenyl)piperazin-1-yl]ethyl}cyclohexyl)succinamide] the value was 238 °C.
Under `CC(=O)CN1CCC(CCN2CCN(c3cccc(CO)c3)CC2)CC1` [Example 640, 1-(4-{2-[4-(3-Hydroxymethylphenyl)piperazin-1-yl]ethyl}piperidin-1-yl)propan-2-one] stands 84 °C; under `CC(=O)CN1CCC(CCN2CCN(c3ccc4c(c3)CCCCC4)CC2)CC1` [Example 642, 1-(4-{2-[4-(6,7,8,9-Tetrahydro-5H-benzocyclohepten-2-yl)piperazin-1-yl]ethyl}piperidin-1-yl)propan-2-one], 98 °C; under `N#CCCC(=O)N[C@H]1CC[C@H](CCN2CCN(c3ccc(C(F)(F)F)cc3)CC2)CC1` [Example 643, 3-Cyano-N-(4-{2-[4-(4-trifluoromethylphenyl)piperazin-1-yl]ethyl}cyclohexyl) propanamide], 207 °C.
Under `N#CCCC(=O)N[C@H]1CC[C@H](CCN2CCN(c3cccc(C#N)c3)CC2)CC1` [Example 644, 3-Cyano-N-(4-{2-[4-(3-cyanophenyl)piperazin-1-yl]ethyl}cyclohexyl)propanamide] stands 160 °C; under `N#CCC(=O)N[C@H]1CC[C@H](CCN2CCN(c3ccc(C(F)(F)F)cc3F)CC2)CC1` [Example 645, 2-Cyano-N-(4-{2-[4-(2-fluoro-4-trifluoromethylphenyl)piperazin-1-yl]ethyl}cyclohexyl) acetamide], 212 °C.
In turn, `N#CCCCC(=O)N[C@H]1CC[C@H](CCN2CCN(c3ccc(C(F)(F)F)cc3F)CC2)CC1` [Example 646, 4-Cyano-N-(4-{2-[4-(2-fluoro-4-trifluoromethylphenyl)piperazin-1-yl]ethyl}cyclohexyl)-butanamide] returned a melting point of 165 °C.
For the compound `COCCCC(=O)N[C@H]1CC[C@H](CCN2CCN(c3ccc(F)c(F)c3F)CC2)CC1` [Example 652, 4-Methoxy-N-(4-{2-[4-(2,3,4-trifluorophenyl)piperazin-1-yl]ethyl}cyclohexyl)butanamide], the melting point was found to be 203 °C.
Compound `N#Cc1cccc(N2CCN(CC[C@H]3CC[C@H](NC(=O)CCC(F)(F)F)CC3)CC2)c1` [Example 653, N-(4-{2-[4-(3-Cyanophenyl)piperazin-1-yl]ethyl}cyclohexyl)-4,4,4-trifluorobutanamide] displayed a melting point of 176 °C.
Under `CC(=O)CN1CCC(CCN2CCN(c3ccc(F)c(F)c3F)CC2)CC1` [Example 656] stands 88 °C; under `CC(=O)CN1CCC(CCN2CCN(c3ccc(F)c(C#N)c3)CC2)CC1` [Example 659, 2-Fluoro-5-(4-{2-[1-(2-oxopropyl)piperidin-4-yl]ethyl}piperazin-1-yl)benzonitrile], 102 °C.
Under `N#CCC(=O)N[C@H]1CC[C@H](CCN2CCN(c3ccc(F)c(C#N)c3)CC2)CC1` [Example 660, 2-Cyano-N-(4-{2-[4-(3-cyano-4-fluorophenyl)piperazin-1-yl]ethyl}cyclohexyl)acetamide] stands 185 °C; under `COCCCC(=O)N[C@H]1CC[C@H](CCN2CCN(c3ccc(F)c(C#N)c3)CC2)CC1` [Example 661, N-(4-{2-[4-(3-Cyano-4-fluorophenyl)piperazin-1-yl]ethyl}cyclohexyl)-4-methoxybutanamide], 197 °C; under `N#CCCCC(=O)N[C@H]1CC[C@H](CCN2CCN(c3ccc(F)c(C#N)c3)CC2)CC1` [Example 662, 4-Cyano-N-(4-{2-[4-(3-cyano-4-fluorophenyl)piperazin-1-yl]ethyl}cyclohexyl)butanamide], 158 °C.
Under `CC(=O)CN1CCC(CCN2CCN(c3cc(F)ccc3F)CC2)CC1` [Example 663, 1-(4-{2-[4-(2,5-Difluorophenyl)piperazin-1-yl]ethyl}piperidin-1-yl)propan-2-one] stands 90 °C; under `N#CCC(=O)N[C@H]1CC[C@H](CCN2CCN(c3cc(F)cc(C(F)(F)F)c3)CC2)CC1` [Example 664, 2-Cyano-N-(4-{2-[4-(3-fluoro-5-trifluoromethylphenyl)piperazin-1-yl]ethyl}cyclohexyl)acetamide], 178 °C; under `N#CCCCC(=O)N[C@H]1CC[C@H](CCN2CCN(c3cc(F)cc(C(F)(F)F)c3)CC2)CC1` [Example 665, 4-Cyano-N-(4-{2-[4-(3-fluoro-5-trifluoromethylphenyl)piperazin-1-yl]ethyl}cyclohexyl)butanamide], 163 °C.
Compound `N#CCCC(=O)N[C@H]1CC[C@H](CCN2CCN(c3cc(C(F)(F)F)ccc3F)CC2)CC1` [Example 668, 3-Cyano-N-(4-{2-[4-(2-fluoro-5-trifluoromethylphenyl)piperazin-1-yl]ethyl}cyclohexyl)propanamide] gave a melting point of 164 °C.
For `O=C(CC(F)(F)F)N[C@H]1CC[C@H](CCN2CCN(c3cc(C(F)(F)F)ccc3F)CC2)CC1` [Example 670, 3,3,3-Trifluoro-N-(4-{2-[4-(2-fluoro-5-trifluoromethylphenyl)piperazin-1-yl]ethyl}cyclohexyl) propanamide] the value was 177 °C.
Under `NC(=O)CC(=O)N[C@H]1CC[C@H](CCN2CCN(c3cc(C(F)(F)F)ccc3F)CC2)CC1` [Example 671, N-(4-{2-[4-(2-Fluoro-5-trifluoromethylphenyl)piperazin-1-yl]ethyl}cyclohexyl)-malonamide] stands 185 °C; under `CCc1ccc(F)c(N2CCN(CC[C@H]3CC[C@H](NC(=O)CC#N)CC3)CC2)c1` [Example 673, 2-Cyano-N-(4-{2-[4-(5-ethyl-2-fluorophenyl)piperazin-1-yl]ethyl}cyclohexyl)acetamide], 180 °C.
Under `CCc1ccc(F)c(N2CCN(CC[C@H]3CC[C@H](NC(=O)CCCC#N)CC3)CC2)c1` [Example 674, 4-Cyano-N-(4-{2-[4-(5-ethyl-2-fluorophenyl)piperazin-1-yl]ethyl}cyclohexyl)butanamide] stands 153 °C; under `COCCCC(=O)N[C@H]1CC[C@H](CCN2CCN(c3cccc(C)c3)CC2)CC1` [Example 675, 4-Methoxy-N-{4-[2-(4-m-tolylpiperazin-1-yl)ethyl]cyclohexyl}butanamide], 148 °C; under `COCCCC(=O)N[C@H]1CC[C@H](CCN2CCN(c3ccc(Cl)c(Cl)c3F)CC2)CC1` [Example 684, N-(4-{2-[4-(3,4-Dichloro-2-fluoro-phenyl)piperazin-1-yl]ethyl}cyclohexyl)-4-methoxybutanamide], 210 °C.
On to `CSc1cccc(N2CCN(CCC3CCN(CC(C)=O)CC3)CC2)c1` [Example 686, 1-(4-{2-[4-(3-Methylsulfanyl-phenyl)piperazin-1-yl]ethyl}-piperidin-1-yl)propan-2-one], for which the melting point came to 113 °C.
